From patent US20220125903A1, “METHODS FOR IMPROVING THE EFFICACY OF A SURVIVIN THERAPEUTIC IN THE TREATMENT OF TUMORS” (IMMUNOVACCINE TECHNOLOGIES INC., priority 2018, published 2022)
Marks after values point to notes of the source that are not given here.

Assays:
recurrent ovarian cancer = assay: Phase 1b study: DPX-Survivac with low dose cyclophosphamide and epacadostat, tumor response by modified RECIST 1.1; assay type: in vivo, human; conditions: for CR (complete response), number of subjects / DCR (CR + PR + SD), disease control rate / DCR (CR + PR + SD), number of subjects / ORR (overall response rate), % of subjects / ORR (overall response rate), number of subjects / PR (partial response), % of subjects / PR (partial response), number of subjects / Partial response, % of subjects / Partial response, subjects/N / Progressive disease, % of subjects / Progressive disease, subjects/N / Stable disease, % of subjects / Stable disease, subjects/N / Tumor regressions, % of subjects / Tumor regressions, subjects/N / PD (progressive disease), % of subjects / PD (progressive disease), subjects/N / PR (partial response), subjects/N: with DPX-Survivac + low dose CPA
survivin = assay: Cell mediated immunity: survivin-specific T cell response by ELISpot (Phase 1b); assay type: in vivo, human; conditions: with DPX-Survivac + low dose CPA
Experimental: Cell Mediated Immunity was determined by immunogenicity analysis and describe as the percentage of subjects with a positive immune response to one or more epitopes in the T cell activation therapeutic as well as changes in immune cell infiltration to the tumor. For ELISpot, antigen-specific response rate greater than Mean+2SD (typically>64 SFU/106 PBMC) obtained from pre-treatment and/or unstimulated/background cells was considered a positive response. Further, based on the magnitude of ELISpot response following treatment, subjects were classified as low (>64 to <512 SFU/106 PBMC) or high (>512 SFU/106 PBMC) immune responders to treatment or described as having a high and sustained immune response (3 separate time points >512 SFU/106 PBMC).

[1] = all epacadostat doses (N = 15), total target lesion size < 5 cm
[2] = all epacadostat doses (N = 38), total target lesion size ≥ 5 cm
[3] = epacadostat 100 mg (N = 5), sum of target lesion at baseline <5 cm
[4] = epacadostat 100 mg (N = 14), all subjects
[5] = epacadostat 100 mg BID (N = 5), total target lesion size < 5 cm
[6] = epacadostat 100 mg BID (N = 9), total target lesion size ≥ 5 cm
[7] = epacadostat 100 mg and 300 mg, Total (N = 53)
[8] = epacadostat 300 mg (N = 10), sum of target lesion at baseline <5 cm, partially monitored data
[9] = epacadostat 300 mg (N = 39), all subjects, partially monitored data
[10] = epacadostat 300 mg BID (N = 10), total target lesion size < 5 cm
[11] = epacadostat 300 mg BID (N = 29), total target lesion size ≥ 5 cm
[12] = epacadostat Total (N = 15), sum of target lesion at baseline <5 cm

With `NS(=O)(=O)NCCNc1nonc1/C(=N\c1ccc(F)c(Br)c1)NO` [Epacadostat] the “dose related activity of epacadostat” value (recurrent ovarian cancer; preliminary analysis, 100 mg vs 300 mg combined with DPX-Survivac and low dose CPA) was “absence of dose related activity”, the “CR (complete response), number of subjects” value (“CR (complete response)” for short) (recurrent ovarian cancer; [1]) was 0 and the “DCR (CR + PR + SD), disease control rate” value (recurrent ovarian cancer; [1]) was “(66.7%)”. For the same compound, the “DCR (CR + PR + SD), number of subjects” value (recurrent ovarian cancer; [1]) was 10, the “ORR (overall response rate), % of subjects” value (“ORR … % of subjects” below) (recurrent ovarian cancer; [1]) was “(26.7%)” and the “ORR (overall response rate), number of subjects” value (“ORR … number of subjects” for short) (recurrent ovarian cancer; [1]) was 4. The “PR (partial response), % of subjects” value (recurrent ovarian cancer; [1]) was “(26.7%)”, the “PR (partial response), number of subjects” value (recurrent ovarian cancer; [1]) was 4 and the “CR (complete response)” value (recurrent ovarian cancer; [2]) was 0. The “DCR (CR + PR + SD), disease control rate” value (recurrent ovarian cancer; [2]) was “(39.5%)”, the “DCR (CR + PR + SD), number of subjects” value (recurrent ovarian cancer; [2]) was 15 and the “ORR … % of subjects” value (recurrent ovarian cancer; [2]) was “(2.6%)”. The “ORR … number of subjects” value (recurrent ovarian cancer; [2]) was 1, the “PR (partial response), % of subjects” value (recurrent ovarian cancer; [2]) was “(2.6%)” and the “PR (partial response), number of subjects” value (recurrent ovarian cancer; [2]) was 1. For the same compound, the “Partial response, % of subjects” value (recurrent ovarian cancer; [3]) was “(60.0%)”, the “Partial response, subjects/N” value (recurrent ovarian cancer; [3]) was 3/5 and the “Progressive disease, % of subjects” value (recurrent ovarian cancer; [3]) was “(0%)”. For the same compound, the “Progressive disease, subjects/N” value (recurrent ovarian cancer; [3]) was 0/5, the “Stable disease, % of subjects” value (recurrent ovarian cancer; [3]) was “(40.0%)” and the “Stable disease, subjects/N” value (recurrent ovarian cancer; [3]) was 2/5. The “Tumor regressions, % of subjects” value (recurrent ovarian cancer; [3]) was “(100%)”, the “Tumor regressions, subjects/N” value (recurrent ovarian cancer; [3]) was 5/5 and the “PD (progressive disease), % of subjects” value (recurrent ovarian cancer; [4]) was “(35.7%)”. The “PD (progressive disease), subjects/N” value (recurrent ovarian cancer; [4]) was 5/14, the “PR (partial response), % of subjects” value (recurrent ovarian cancer; [4]) was “(21.4%)” and the “PR (partial response), subjects/N” value (recurrent ovarian cancer; [4]) was 3/14. The “Tumor regressions, % of subjects” value (recurrent ovarian cancer; [4]) was “(35.7%)”, the “Tumor regressions, subjects/N” value (recurrent ovarian cancer; [4]) was 5/14 and the “CR (complete response)” value (recurrent ovarian cancer; [5]) was 0. For the same compound, the “DCR (CR + PR + SD), disease control rate” value (recurrent ovarian cancer; [5]) was “(100%)”, the “DCR (CR + PR + SD), number of subjects” value (recurrent ovarian cancer; [5]) was 5 and the “ORR … % of subjects” value (recurrent ovarian cancer; [5]) was “(60%)”. The “ORR … number of subjects” value (recurrent ovarian cancer; [5]) was 3, the “PR (partial response), % of subjects” value (recurrent ovarian cancer; [5]) was “(60.0%)” and the “PR (partial response), number of subjects” value (recurrent ovarian cancer; [5]) was 3. For the same compound, the “CR (complete response)” value (recurrent ovarian cancer; [6]) was 0, the “DCR (CR + PR + SD), disease control rate” value (recurrent ovarian cancer; [6]) was “(33.3%)” and the “DCR (CR + PR + SD), number of subjects” value (recurrent ovarian cancer; [6]) was 3. The “ORR … number of subjects” value (recurrent ovarian cancer; [6]) was 0, the “PR (partial response), number of subjects” value (recurrent ovarian cancer; [6]) was 0 and the “PD (progressive disease), % of subjects” value (recurrent ovarian cancer; [7]) was “(34.0%)”. The “PD (progressive disease), subjects/N” value (recurrent ovarian cancer; [7]) was 18/53, the “PR (partial response), % of subjects” value (recurrent ovarian cancer; [7]) was “(9.4%)” and the “PR (partial response), subjects/N” value (recurrent ovarian cancer; [7]) was 5/53. The “Tumor regressions, % of subjects” value (recurrent ovarian cancer; [7]) was “(20.1%)”, the “Tumor regressions, subjects/N” value (recurrent ovarian cancer; [7]) was 11/53 and the “Partial response, % of subjects” value (recurrent ovarian cancer; [8]) was “(10.0%)”. For the same compound, the “Partial response, subjects/N” value (recurrent ovarian cancer; [8]) was 1/10, the “Progressive disease, % of subjects” value (recurrent ovarian cancer; [8]) was “(50.0%)” and the “Progressive disease, subjects/N” value (recurrent ovarian cancer; [8]) was 5/10. The “Stable disease, % of subjects” value (recurrent ovarian cancer; [8]) was “(40.0%)”, the “Stable disease, subjects/N” value (recurrent ovarian cancer; [8]) was 4/10 and the “Tumor regressions, % of subjects” value (recurrent ovarian cancer; [8]) was “(30.0%)”. For the same compound, the “Tumor regressions, subjects/N” value (recurrent ovarian cancer; [8]) was 3/10, the “PD (progressive disease), % of subjects” value (recurrent ovarian cancer; [9]) was “(33.3%)” and the “PD (progressive disease), subjects/N” value (recurrent ovarian cancer; [9]) was 13/39. For the same compound, the “PR (partial response), % of subjects” value (recurrent ovarian cancer; [9]) was “(5.1%)”, the “PR (partial response), subjects/N” value (recurrent ovarian cancer; [9]) was 2/39 and the “Tumor regressions, % of subjects” value (recurrent ovarian cancer; [9]) was “(15.4%)”. For the same compound, the “Tumor regressions, subjects/N” value (recurrent ovarian cancer; [9]) was 6/39, the “CR (complete response)” value (recurrent ovarian cancer; [10]) was 0 and the “DCR (CR + PR + SD), disease control rate” value (recurrent ovarian cancer; [10]) was “(50.0%)”. For the same compound, the “DCR (CR + PR + SD), number of subjects” value (recurrent ovarian cancer; [10]) was 5, the “ORR … % of subjects” value (recurrent ovarian cancer; [10]) was “(10.0%)” and the “ORR … number of subjects” value (recurrent ovarian cancer; [10]) was 1. The “PR (partial response), % of subjects” value (recurrent ovarian cancer; [10]) was “(10.0%)”, the “PR (partial response), number of subjects” value (recurrent ovarian cancer; [10]) was 1 and the “CR (complete response)” value (recurrent ovarian cancer; [11]) was 0. The “DCR (CR + PR + SD), disease control rate” value (recurrent ovarian cancer; [11]) was “(41.4%)”, the “DCR (CR + PR + SD), number of subjects” value (recurrent ovarian cancer; [11]) was 12 and the “ORR … % of subjects” value (recurrent ovarian cancer; [11]) was “(3.4%)”. The “ORR … number of subjects” value (recurrent ovarian cancer; [11]) was 1, the “PR (partial response), % of subjects” value (recurrent ovarian cancer; [11]) was “(3.4%)” and the “PR (partial response), number of subjects” value (recurrent ovarian cancer; [11]) was 1. For the same compound, the “Partial response, % of subjects” value (recurrent ovarian cancer; [12]) was “(26.7%)”, the “Partial response, subjects/N” value (recurrent ovarian cancer; [12]) was 4/15 and the “Progressive disease, % of subjects” value (recurrent ovarian cancer; [12]) was “(33.3%)”. For the same compound, the “Progressive disease, subjects/N” value (recurrent ovarian cancer; [12]) was 5/15, the “Stable disease, % of subjects” value (recurrent ovarian cancer; [12]) was “(33.3%)” and the “Stable disease, subjects/N” value (recurrent ovarian cancer; [12]) was 5/15. For the same compound, the “Tumor regressions, % of subjects” value (recurrent ovarian cancer; [12]) was “(53.3%)”, the “Tumor regressions, subjects/N” value (recurrent ovarian cancer; [12]) was 8/15 and the “Positive T cell response (survivin), % of subjects” value (survivin; [3]) was “(100%)”. For the same compound, the “Positive T cell response (survivin), subjects/evaluable” value (survivin; [3]) was 4/4, the “Positive T cell response (survivin), % of subjects” value (survivin; [4]) was “(100%)” and the “Positive T cell response (survivin), subjects/evaluable” value (survivin; [4]) was 11/11. The “Positive T cell response (survivin), % of subjects” value (survivin; [7]) was “(81.5%)”, the “Positive T cell response (survivin), subjects/evaluable” value (survivin; [7]) was 22/27 and the “Positive T cell response (survivin), % of subjects” value (survivin; [8]) was “(25%)^a”. For the same compound, the “Positive T cell response (survivin), subjects/evaluable” value (survivin; [8]) was 1/4, the “Positive T cell response (survivin), % of subjects” value (survivin; [9]) was “(56.3%)^b” and the “Positive T cell response (survivin), subjects/evaluable” value (survivin; [9]) was 9/16.
